Data on 1 substance can be found in publication PMC10460880, “Cathepsin K‐Activated Probe for Fluoro‐Photoacoustic Imaging of Early Osteolytic Metastasis” (Advanced Science, 2023).

Test [1] concerns MDA-MB-231/Luc-induced osteolytic metastasis. Kind of test: Real-time NIR fluorescence and PA imaging of osteolytic metastasis. The test is classed as in vivo, BALB/c nude mice. The note with it: i.v. 50 μM, 200 μL; imaged 0-24 h; n = 3. Here is the method:
page 5: PS. RAW 264.7 cells and BMMs were maintained in an atmosphere of 5% CO2 and 95% humidified air at 37 °C. The medium was changed every day. Cell cytotoxicity assay. MDA-MB-231/Luc and RAW 264.7 cells were seeded in 96-well plates (5×10^3 cells per well) for 24 h and then incubated with CTSK-APPA or CTSK-APP (5, 10, 20, 50 μM) or saline for 24 h. The medium was removed and cells were incubated with CCK-8 (0.5 mg/mL) for another 1 h. The absorbance of the mixture at 450 nm was measured by using a microplate reader. Cell viability was expressed by the ratio of the absorbance of the cells incubated with the probes to that of the cells incubated with culture medium only. In vitro osteoclast differentiation. Bone marrow-derived macrophages were isolated from the femurs and tibias of 4-week-old C57BL/6J mice and cultured in a complete medium containing M-CSF (30 ng/mL) for 4 days. […] Fluorescence images were captured by using the IVIS Spectrum imaging system with excitation at 660 ± 10 nm and emission at 710 ± 10 nm. […] The bone marrow toxicity of CTSK-APPA and CTSK-APP was assessed by blood analyses in mice. […] The red blood count (RBC) and white blood count (WBC) were further measured. […] The supernatants containing excreted probes were quantified by using a UV-vis absorption spectrometer. […]

The subject of test [2] is CTSK-overexpressing OCs on calf bone slice. Kind of test: In vitro bone resorption imaging assay. The test is classed as cell-based, C57BL/6J mice. The note with it: probe 5 μM, 37 °C, 2 h; Ex 660 nm, Em 710 nm; n = 3. The procedure:
PS. RAW 264.7 cells and BMMs were maintained in an atmosphere of 5% CO2 and 95% humidified air at 37 °C. The medium was changed every day.
Cell cytotoxicity assay. MDA-MB-231/Luc and RAW 264.7 cells were seeded in 96-well plates (5×10^3 cells per well) for 24 h and then incubated with CTSK-APPA or CTSK-APP (5, 10, 20, 50 μM) or saline for 24 h. The medium was removed and cells were incubated with CCK-8 (0.5 mg/mL) for another 1 h. The absorbance of the mixture at 450 nm was measured by using a microplate reader. Cell viability was expressed by the ratio of the absorbance of the cells incubated with the probes to that of the cells incubated with culture medium only.
In vitro osteoclast differentiation. Bone marrow-derived macrophages were isolated from the femurs and tibias of 4-week-old C57BL/6J mice and cultured in a complete medium containing M-CSF (30 ng/mL) for 4 days. BMMs were harvested to the 24-well plates (1×10^4 per well) and cultured in the complete medium containing M-CSF (30 ng/mL) and RANKL (100 ng/mL) for another 4 days. The osteoclasts were fixed and stained by using acid phosphatase and a leukocyte kit according to the manufacturer’s procedures.
In vitro bone resorption imaging assay. […]
Fluorescence images were captured by using the IVIS Spectrum imaging system with excitation […]

With Cbz‐Leu‐Arg‐OH [CTSK-APPA], the “time of maximum NIR fluorescence and PA signal post-injection” value in test [1] is given as 4 h. Besides, the “NIR fluorescence of bone-resorption slice vs normal bone slices” value in test [2] is “stronger NIR fluorescence signal”.
